Values quoted from earlier work in patent US9301985B2, “Therapeutic agent for dementia” (Kibun Foods Inc., priority 2013, dated 2016).

Key:
[1] = test system: cerebrovascular dementia model and Alzheimer's disease model; conditions: rat; cerebrovascular dementia model (vessel artificially clogged) and Alzheimer's disease model
[2] = test system: nerve growth factor (NGF); conditions: erinacine E derived from Hericium erinaceum
k-opioid receptor = k-opioid receptor (Homo sapiens, UniProt P41145); conditions: erinacine E derived from Hericium ramosum
k-opioid receptor, sequence (P41145 whole entry): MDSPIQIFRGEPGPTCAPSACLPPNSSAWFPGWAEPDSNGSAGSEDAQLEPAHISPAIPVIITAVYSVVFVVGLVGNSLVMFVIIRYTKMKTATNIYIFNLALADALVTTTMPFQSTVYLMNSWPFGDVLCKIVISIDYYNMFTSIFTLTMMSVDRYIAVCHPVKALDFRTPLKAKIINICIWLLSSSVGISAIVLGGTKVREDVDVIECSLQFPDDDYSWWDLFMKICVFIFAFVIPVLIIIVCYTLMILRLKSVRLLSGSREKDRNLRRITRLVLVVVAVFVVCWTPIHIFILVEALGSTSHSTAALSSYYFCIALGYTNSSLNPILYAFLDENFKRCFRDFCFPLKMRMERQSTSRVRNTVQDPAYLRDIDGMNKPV

Compound	memory retention and learning ability [1]	nerve growth factor (NGF) production [2]	activity at k-opioid receptor (k-opioid receptor)
CC(C)C1=C2C3=CC=C(C=O)C[C@H](O[C@@H]4OC[C@@H](O)[C@H](O)[C@H]4O)[C@]3(C)CC[C@@]2(C)CC1 [erinacine A]	apparent improvement		
CC(C)C1=C2C3CC=C4C(O)C5(O)COC6OC(C4C6(O)C5O)C3(C)CCC2(C)CC1 (stereo not shown) [erinacine E]		action to accelerate	agonist
CCCCCCCCCCCCCCCC(=O)OCc1cc(OC)c(C/C=C(\C)CC(=O)C=C(C)C)c(O)c1C=O [hericenone C]	apparent improvement		
